Data: US20230295212A1 (ROME Therapeutics, Inc., priority 2022, published 2023)

Target: T1, LINE1 reverse transcriptase (Homo sapiens, UniProt O00370)
T1 construct: expressed in transfected cells; host or cells: HeLa Tet-On 3G (Takara, cat no 631183)
Experiment: Stable artificial-intron Cis LINE1 reporter assay (HeLa Tet-On 3G, Firefly luciferase)
Assay type: cell-based
Settings: HeLa L1 artificial-intron reporter cells, doxycycline 500 ng/mL, 72 h, class symbols
Experimental: Exemplary compounds, were tested for the ability to inhibit LINE1 reverse transcriptase using a stable artificial-intron Cis LINE1 reporter assay. Assay procedures and results are described below.
A stable HeLa Tet-On 3G (Takara, cat no 631183) cell line expressing a bi-directional inducible LINE1 construct was generated as described in Xie, Y. et al. “Cell division promotes efficient retrotransposition in a stable L1 reporter cell line,” Mobile DNA (2013) 4:10. Single cell clones were screened for high Luciferase expression and the highest expression Firefly expressing clone was chosen for compound testing.
Test compounds were serially diluted in DMSO and spotted in 96-well plates. Subsequently, the HeLa Li artificial-intron reporter cells were plated into the compound-containing wells (8,000 cells/well), and the cells were induced for reporter expression with doxycycline (Sigma-Aldrich cat #D9891) at a final concentration of 500 ng/mL. Luminescence was measured 72 h after plating using the Dual-Glo Luciferase Assay System (Promega cat #E2940) following the manufacturer's instructions. The Firefly Luciferase activity was used to report LINE1 activity.

T1 sequence (O00370 whole entry, looked up): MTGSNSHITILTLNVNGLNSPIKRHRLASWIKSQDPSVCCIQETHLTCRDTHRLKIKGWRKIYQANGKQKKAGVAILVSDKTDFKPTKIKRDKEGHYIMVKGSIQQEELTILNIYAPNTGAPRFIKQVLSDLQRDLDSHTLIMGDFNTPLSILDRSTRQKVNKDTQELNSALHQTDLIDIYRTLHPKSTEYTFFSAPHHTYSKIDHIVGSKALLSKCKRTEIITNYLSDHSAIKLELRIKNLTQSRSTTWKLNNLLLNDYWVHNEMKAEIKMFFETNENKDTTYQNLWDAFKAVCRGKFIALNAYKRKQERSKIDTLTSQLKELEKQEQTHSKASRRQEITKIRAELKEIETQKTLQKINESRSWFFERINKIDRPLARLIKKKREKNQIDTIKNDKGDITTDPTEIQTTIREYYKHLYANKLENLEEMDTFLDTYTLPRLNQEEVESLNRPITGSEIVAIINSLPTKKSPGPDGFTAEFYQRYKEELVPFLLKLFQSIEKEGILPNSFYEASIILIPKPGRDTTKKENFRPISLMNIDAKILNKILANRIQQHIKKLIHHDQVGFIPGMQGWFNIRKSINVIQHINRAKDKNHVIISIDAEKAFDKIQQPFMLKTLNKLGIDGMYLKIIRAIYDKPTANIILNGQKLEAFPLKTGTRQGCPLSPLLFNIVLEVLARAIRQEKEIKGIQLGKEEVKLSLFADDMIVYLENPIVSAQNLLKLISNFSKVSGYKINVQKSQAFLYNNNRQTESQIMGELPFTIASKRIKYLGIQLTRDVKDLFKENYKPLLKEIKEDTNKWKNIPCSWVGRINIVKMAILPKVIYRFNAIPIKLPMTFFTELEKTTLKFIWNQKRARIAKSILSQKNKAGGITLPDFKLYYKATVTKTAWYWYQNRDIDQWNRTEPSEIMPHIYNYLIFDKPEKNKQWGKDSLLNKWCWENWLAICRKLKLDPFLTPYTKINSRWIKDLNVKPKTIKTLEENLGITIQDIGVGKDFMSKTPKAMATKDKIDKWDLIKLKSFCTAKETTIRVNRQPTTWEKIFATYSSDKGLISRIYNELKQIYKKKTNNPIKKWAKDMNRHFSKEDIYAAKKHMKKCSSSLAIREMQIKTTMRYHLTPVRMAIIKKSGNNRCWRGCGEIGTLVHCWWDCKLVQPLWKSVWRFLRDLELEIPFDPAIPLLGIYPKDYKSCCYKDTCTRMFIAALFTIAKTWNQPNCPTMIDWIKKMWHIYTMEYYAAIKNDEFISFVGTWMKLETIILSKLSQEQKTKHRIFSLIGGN

Q: With C=C[C@]1(CO)O[C@@H](n2cc(F)c(N)nc2=O)C[C@@H]1O [Compound 74, 4-amino-5-fluoro-1-((2R,4S,5R)-4-hydroxy-5-(hydroxymethyl)-5-vinyltetrahydrofuran-2-yl)pyrimidin-2(1H)-one] as the compound, how does the IC50 read?
A: ≤ 50 nM

Q: With C=C[C@]1(CO)O[C@@H](n2cc(F)c(N)nc2=O)[C@@H](O)[C@@H]1O [Compound 75, 4-amino-1-((2R,3S,4S,5R)-3,4-dihydroxy-5-(hydroxymethyl)-5-vinyltetrahydrofuran-2-yl)-5-fluoropyrimidin-2(1H)-one] as the compound, how does the IC50 read?
A: 100 to 250 nM

Q: Which IC50 does the source give for C=C[C@]1(CO)O[C@@H](n2cc(F)c(N)nc2=O)[C@@H](F)[C@@H]1O [Compound 76, 4-amino-1-[(2R,3S,4R,5R)-5-ethenyl-3-fluoro-4-hydroxy-5-(hydroxymethyl)oxolan-2-yl]-5-fluoropyrimidin-2-one] here?
A: ≤ 50 nM

Q: For CC[C@]1(CO)O[C@@H](n2cc(F)c(N)nc2=O)[C@@H](F)[C@@H]1O [Compound 77, 4-amino-1-[(2R,3S,4R,5R)-5-ethyl-3-fluoro-4-hydroxy-5-(hydroxymethyl)oxolan-2-yl]-5-fluoropyrimidin-2-one], which IC50 is on record?
A: ≤ 50 nM

Q: How did the IC50 turn out when CC[C@]1(CO)O[C@@H](n2cc(F)c(N)nc2=O)[C@@H](O)[C@@H]1O [Compound 78, 4-amino-1-((2R,3S,4S,5R)-5-ethyl-3,4-dihydroxy-5-(hydroxymethyl)tetrahydrofuran-2-yl)-5-fluoropyrimidin-2(1H)-one] was run?
A: 50 to 100 nM

Q: For C=C[C@]1(CO)O[C@@H](n2cnc3c(N)nc(F)nc32)[C@@H](F)[C@@H]1O [Compound 80, (2R,3R,4S,5R)-5-(6-amino-2-fluoropurin-9-yl)-2-ethenyl-4-fluoro-2-(hydroxymethyl)oxolan-3-ol], which IC50 is on record?
A: 100 to 250 nM

Q: Which IC50 does the source give for CC[C@]1(CO)O[C@@H](n2cnc3c(N)nc(F)nc32)[C@@H](F)[C@@H]1O [Compound 81, (2R,3R,4S,5R)-5-(6-amino-2-fluoropurin-9-yl)-2-ethyl-4-fluoro-2-(hydroxymethyl)oxolan-3-ol] here?
A: 100 to 250 nM

Q: CC[C@]1(CO)O[C@@H](n2cc(F)c(N)nc2=O)C[C@@H]1O [Compound 82, 4-amino-1-((2R,4S,5R)-5-ethyl-4-hydroxy-5-(hydroxymethyl)tetrahydrofuran-2-yl)-5-fluoropyrimidin-2(1H)-one] was tested. Which IC50 did it give?
A: ≤ 50 nM

Q: Which IC50 does the source give for Nc1nc2c(ncn2[C@@H]2O[C@@](CO)(CF)[C@@H](O)[C@@H]2F)c(=O)[nH]1 [Compound 83, 2-amino-9-((2R,3S,4R,5R)-3-fluoro-5-(fluoromethyl)-4-hydroxy-5-(hydroxymethyl)tetrahydrofuran-2-yl)-1,9-dihydro-6H-purin-6-one] here?
A: > 1000 nM

Q: With Nc1nc(F)nc2c1ncn2[C@@H]1O[C@@](CO)(CF)[C@@H](O)[C@@H]1F [Compound 84] as the compound, how does the IC50 read?
A: > 1000 nM

Q: With Nc1nc(=O)n([C@@H]2O[C@@](CO)(CF)[C@@H](O)[C@@H]2F)cc1F [Compound 85, 4-amino-5-fluoro-1-[(2R,3S,4R,5R)-3-fluoro-5-(fluoromethyl)-4-hydroxy-5-(hydroxymethyl)oxolan-2-yl] pyrimidin-2-one] as the compound, how does the IC50 read?
A: 50 to 100 nM

Q: For Nc1nc(=O)n([C@@H]2O[C@@](CO)(CBr)[C@@H](O)[C@@H]2F)cc1F [Compound 86, 4-amino-1-[(2R,3S,4R,5R)-5-(bromomethyl)-3-fluoro-4-hydroxy-5-(hydroxymethyl)oxolan-2-yl]-5-fluoropyrimidin-2-one], which IC50 is on record?
A: ≤ 50 nM

Q: Which IC50 does the source give for Nc1nc(=O)n([C@H]2C[C@H](O)[C@](CO)(CBr)O2)cc1F [Compound 88, 4-amino-1-((2R,4S,5R)-5-(bromomethyl)-4-hydroxy-5-(hydroxymethyl)tetrahydrofuran-2-yl)-5-fluoropyrimidin-2(1H)-one] here?
A: ≤ 50 nM

Q: How did the IC50 turn out when [N-]=[N+]=N[C@]1(CO)O[C@@H](c2ccc3c(N)ncnn23)C[C@@H]1O [Compound 92, (2R,3S,5R)-5-(4-aminopyrrolo[2,1-f][1,2,4]triazin-7-yl)-2-azido-2-(hydroxymethyl)tetrahydrofuran-3-ol] was run?
A: ≤ 50 nM

Q: With C[C@]1(CO)O[C@@H](n2ccc(N)nc2=O)C[C@@H]1O [Compound 106, 4-amino-1-((2R,4S,5R)-4-hydroxy-5-(hydroxymethyl)-5-methyltetrahydrofuran-2-yl)pyrimidin-2(1H)-one] as the compound, how does the IC50 read?
A: ≤ 50 nM

Q: For C#C[C@]1(CO)O[C@@H](n2cc(F)c(N)nc2=O)C[C@@H]1O [Compound 107, 4-amino-1-((2R,4S,5R)-5-ethynyl-4-hydroxy-5-(hydroxymethyl)tetrahydrofuran-2-yl)-5-fluoropyrimidin-2(1H)-one], which IC50 is on record?
A: ≤ 50 nM

Q: For [N-]=[N+]=N[C@]1(CO)O[C@@H](n2cnc3c(=O)[nH]c(N)nc32)C[C@@H]1O [Compound 108, 2-amino-9-((2R,4S,5R)-5-azido-4-hydroxy-5-(hydroxymethyl)tetrahydrofuran-2-yl)-1,9-dihydro-6H-purin-6-one], which IC50 is on record?
A: 50 to 100 nM

Q: How did the IC50 turn out when C=C[C@]1(CO)O[C@@H](n2cnc3c(N)nc(F)nc32)C[C@@H]1O [Compound 109, (2R,3S,5R)-5-(6-amino-2-fluoro-9H-purin-9-yl)-2-(hydroxymethyl)-2-vinyltetrahydrofuran-3-ol] was run?
A: ≤ 50 nM

Q: Which IC50 does the source give for Nc1ccn([C@H]2C[C@H](O)[C@](CO)(C(F)F)O2)c(=O)n1 [Compound 110, 4-amino-1-((2R,4S,5R)-5-(difluoromethyl)-4-hydroxy-5-(hydroxymethyl)-tetrahydrofuran-2-yl)pyrimidin-2(1H)-one] here?
A: 250 to 1000 nM

Q: How did the IC50 turn out when Nc1ccn([C@@H]2O[C@H](CO)[C@@H](O)C2(F)F)c(=O)n1 [Compound 111, 4-amino-1-((2R,4R,5R)-3,3-difluoro-4-hydroxy-5-(hydroxymethyl)tetrahydrofuran-2-yl)pyrimidin-2(1H)-one] was run?
A: ≤ 50 nM

Q: C#C[C@]1(CO)O[C@@H](n2cc(F)c(N)nc2=O)[C@@H](F)[C@@H]1O [Compound 112, 4-amino-1-((2R,3S,4R,5R)-5-ethynyl-3-fluoro-4-hydroxy-5-(hydroxymethyl)tetrahydrofuran-2-yl)-5-fluoropyrimidin-2(1H)-one] was tested. Which IC50 did it give?
A: ≤ 50 nM

Q: With Nc1ccn([C@@H]2O[C@@](CO)(CF)[C@@H](O)[C@@H]2F)c(=O)n1 [Compound 113, 4-amino-1-((2R,3S,4R,5R)-3-fluoro-5-(fluoromethyl)-4-hydroxy-5-(hydroxymethyl)-tetrahydrofuran-2-yl)pyrimidin-2(1H)-one] as the compound, how does the IC50 read?
A: 50 to 100 nM

Q: Which IC50 does the source give for Nc1ccn([C@@H]2O[C@@](CO)(CCl)[C@@H](O)[C@@H]2O)c(=O)n1 [Compound 114, 4-amino-1-((2R,3S,4S,5R)-5-(chloromethyl)-3,4-dihydroxy-5-(hydroxymethyl)tetrahydrofuran-2-yl)pyrimidin-2(1H)-one] here?
A: 100 to 250 nM

Q: Which IC50 does the source give for CC[C@]1(CO)O[C@@H](n2cnc3c(O)nc(N)nc32)C[C@@H]1O [Compound 115, 2-amino-9-((2R,4S,5R)-5-ethyl-4-hydroxy-5-(hydroxymethyl)tetrahydrofuran-2-yl)-1,9-dihydro-6H-purin-6-one] here?
A: ≤ 50 nM

Q: For C#C[C@]1(CO)O[C@@H](n2cc(F)c(N)nc2=O)[C@@H](O)[C@@H]1O [Compound 116, 4-amino-1-((2R,3S,4S,5R)-5-ethynyl-3,4-dihydroxy-5-(hydroxymethyl)tetrahydrofuran-2-yl)-5-fluoropyrimidin-2(1H)-one], which IC50 is on record?
A: 100 to 250 nM

Q: Nc1ccn([C@@H]2O[C@@](CO)(CCl)[C@@H](O)C2(F)F)c(=O)n1 [Compound 119, 4-amino-1-((2R,4R,5R)-5-(chloromethyl)-3,3-difluoro-4-hydroxy-5-(hydroxymethyl)tetrahydrofuran-2-yl)pyrimidin-2(1H)-one] was tested. Which IC50 did it give?
A: 50 to 100 nM

Q: Which IC50 does the source give for Nc1nc(=O)n([C@H]2C[C@H](O)[C@](CO)(C3CC3)O2)cc1F [Compound 120, 4-amino-1-[(2R,4S,5R)-5-cyclopropyl-4-hydroxy-5-(hydroxymethyl)oxolan-2-yl]-5-fluoropyrimidin-2-one] here?
A: 250 to 1000 nM

Q: With Nc1ccn([C@@H]2O[C@@](CO)(C3CC3)[C@@H](O)[C@@H]2F)c(=O)n1 [Compound 121, 4-amino-1-[(2R,3S,4R,5R)-5-cyclopropyl-3-fluoro-4-hydroxy-5-(hydroxymethyl)oxolan-2-yl] pyrimidin-2-one] as the compound, how does the IC50 read?
A: 100 to 250 nM

Q: Which IC50 does the source give for Nc1nc(=O)n([C@@H]2O[C@@](CO)(C3CC3)[C@@H](O)[C@@H]2F)cc1F [Compound 122, 4-amino-1-[(2R,3S,4R,5R)-5-cyclopropyl-3-fluoro-4-hydroxy-5-(hydroxymethyl)oxolan-2-yl]-5-fluoropyrimidin-2-one] here?
A: 250 to 1000 nM

Same assay, conditions: HeLa L1 artificial-intron reporter cells, doxycycline 500 ng/mL, 72 h, numeric bounds

Q: Nc1ncnn2c([C@H]3C[C@H](O)[C@](CO)(CF)O3)ccc12 [Compound 79, (2R,3S,5R)-5-(4-aminopyrrolo[2,1-f] [1,2,4]triazin-7-yl)-2-(fluoromethyl)-2-(hydroxymethyl)tetrahydrofuran-3-ol] was tested. Which IC50 did it give?
A: > 30000 nM

Q: With Nc1nc2c(ncn2[C@@H]2O[C@@](CO)(CCl)[C@@H](O)[C@@H]2O)c(=O)[nH]1 [Compound 94, 2-amino-9-[(2R,3S,4S,5R)-5-(chloromethyl)-3,4-dihydroxy-5-(hydroxymethyl)oxolan-2-yl]-1H-purin-6-one] as the compound, how does the IC50 read?
A: > 30000 nM

Q: Nc1nc(=O)n([C@@H]2O[C@@](CO)(C(F)(F)F)[C@@H](O)[C@@H]2O)cc1F [Compound 95, 4-amino-1-((2R,3S,4S,5R)-3,4-dihydroxy-5-(hydroxymethyl)-5-(trifluoromethyl)tetrahydrofuran-2-yl)-5-fluoropyrimidin-2(1H)-one] was tested. Which IC50 did it give?
A: > 30000 nM
